Values quoted from earlier work in patent US20070025945A1, “Stabilized pharmaceutical and cosmetic composition of catechins or derivatives thereof” (Anagen Therapeutics, Inc., priority 2005, published 2007).

Columns and labels:
[1] = tested on: 5-alpha-reductase isozyme I / isozyme II; conditions: 5-alpha-reductase isozymes
[2] = tested on: teleocidin-induced tumor promotion; conditions: topically applied to skin; mice previously initiated with DMBA
sebum production = conditions: topical application directly to the forehead

Structure (SMILES)	activity against isozyme I versus isozyme II [1]	teleocidin-induced tumor promotion [2]	sebum production from the human forehead (sebum production)
O=C(O[C@@H]1Cc2c(O)cc(O)cc2O[C@@H]1c1ccc(O)c(O)c1)c1cc(O)c(O)c(O)c1 [ECG, (−)-epicatechin-3-gallates]	more active against isozyme I than isozyme II		
O=C(O[C@@H]1Cc2c(O)cc(O)cc2O[C@@H]1c1cc(O)c(O)c(O)c1)c1cc(O)c(O)c(O)c1 [EGCG, (−)-epigallocatechin-3-gallates]	more active against isozyme I than isozyme II	inhibits	inhibited
CCCCC/C=C\C/C=C\C/C=C\CCCCC(=O)O [gamma-linolenic acid]			inhibited
